Read-outs that look alike come from different tables or passages of the source.
Assays:
[1] = target: T1, hSERT (Homo sapiens, UniProt P31645); test: SERT radioligand binding assay
T1 construct: expressed in transfected cells; host or cells: HEK-293 cells (crude membrane preparation)
Protocol: (§1) NK-1 Binding assay. Crude membrane suspensions were prepared for the NK1 and SERT radioligand binding assays from U373 cells or recombinant HEK-293 cells expressing hSERT, respectively. Cells were harvested from T-175 flasks as follows. The medium is removed from the flasks and the cells rinsed with HBSS without Ca and without Mg. The cells are then incubated for 5-10 minutes in 10 mM Tris-Cl, pH 7.5, 5 mM EDTA before the cells are lifted with a combination of pipetting and scraping, as needed. To prepare membranes, the cell suspension is collected into centrifuge bottles and homogenized for 30 seconds with a Polytron homogenizer. The suspension is centrifuged for 30 min @ 32,000×g, 4° C., then the supernatant is decanted and the pellet resuspended and homogenized in 50 mM Tris-Cl, pH 7.5, 1 mM EDTA for 10 seconds. The suspension is then centrifuged again for 30 min @ 32,000×g, 4° C. The supernatant is decanted and the pellet resuspended in 50 mM Tris-Cl, pH 7.5, 1 mM EDTA and briefly homogenized. A Bradford assay (Bio-rad) is performed and the membrane preparation diluted to 2 mg/ml with 50 mM Tris-Cl, pH 7.5, 1 mM EDTA. Aliquots are prepared, and then frozen and stored at −80° C.
SERT radioligand binding assay. Compounds are dissolved in 100% DMSO at a concentration 100× the desired highest assay concentration, serially diluted 1:3 in 100% DMSO, and 0.4 ul/well of each solution is dispensed to a Nunc polypropylene, round bottom, 384 well plate. 100% inhibition is defined with 0.4 ul/well of 1 mM fluoxetine (Sigma F-132) dissolved in DMSO. 20 ul/well of a 2×HEK-hSERT membrane preparation (15 ug/ml in 50 mM Tris-Cl, pH 7.5, 120 mM NaCl, 5 mM KCl) and 20 ul/well of a 2× radioligand solution (520 pM [^125I]RTI-55 (Perkin-Elmer NEX-272) in 50 mM Tris-Cl, pH 7.5, 120 mM NaCl, 5 mM KCl) are added to each well and the reaction incubated for 1 hour at room temperature. The contents of the assay plate are then transferred to a Millipore MultiscreenHTS GF/B filter plate which has been pretreated with 0.5% PEI for at least one hour. The plate is vacuum filtered and washed with 7 washes of 100 ul/well of 50 mM Tris-Cl, pH 7.5, 120 mM NaCl, 5 mM KCl chilled to 4° C. The filtration and washing is completed in less than 90 s. The plates are air-dried overnight, 12 ul/well of MicroScint scintillation fluid added, and the plates counted in a Trilux.
(§2) Data analysis. The raw data are normalized to percent inhibition using control wells defining 0% (DMSO only) and 100% (selective inhibitor) inhibition which are run on each plate. Each plate is run in triplicate, and the concentration response curve thus generated is fit using the four-parameter dose response equation, Y=Bottom+(Top-Bottom)/(1+10̂((LogIC50−X)*HillSlope)) in order to determine the IC50 value for each compound. The radioligand concentration chosen for each assay corresponds to the Kd concentration determined through saturation binding analysis for each assay.

[2] = target: T2, NK-1 (Homo sapiens, UniProt P25103); test: NK1 radioligand binding assay; settings: U373 membrane preparation, [125I]Substance P; Table 1
T2 construct: 30 ul/well of a 2×U373 membrane preparation; endogenous in cells; host or cells: U373 cells (crude membrane preparation)
Protocol: as §1
NK1 radioligand binding assay. Compounds are dissolved in 100% DMSO at a concentration 100× the desired highest assay concentration, serially diluted 1:3 in 100% DMSO, and 0.6 ul/well of each solution is dispensed to a Nunc polypropylene, round bottom, 384 well plate. 100% inhibition is defined with 0.6 ul/well of 1 mM L-733,060 (Sigma L-137) dissolved in DMSO. 30 ul/well of a 2×U373 membrane preparation (267 ug/ml in 100 mM Tris-Cl, pH 7.5, 6 mM MgCl2, 0.2% (v/v) Sigma mammalian protease inhibitor cocktail (Sigma P-8340), and 4 ug/ml chymostatin, Sigma C-7268) and 30 ul/well of a 2× radioligand solution (400 pM [^125I]Substance P (Perkin Elmer NEX-190) in 1% (w/v) BSA (Sigma A-2153), 0.1 mg/ml bacitracin, Sigma B-0125) are added to the well and the reaction incubated for 1 hour at room temperature. The contents of the assay plate are then transferred to a Millipore MultiscreenHTS GF/B filter plate which has been pretreated with 0.5% PEI for at least one hour. The plate is vacuum filtered and washed with 7 washes of 100 ul/well of 20 mM Tris-Cl, pH 7.5, 0.5% (w/v) BSA chilled to 4° C. The filtration and washing is completed in less than 90 s. The plates are air-dried overnight, 12 ul/well of MicroScint scintillation fluid added, and the plates counted in a Trilux.
as §2

[3] = HEK-hSERT membrane preparation, [125I]RTI-55, Table 1, read-out: SERT IC50

T1 sequence (P31645 whole entry): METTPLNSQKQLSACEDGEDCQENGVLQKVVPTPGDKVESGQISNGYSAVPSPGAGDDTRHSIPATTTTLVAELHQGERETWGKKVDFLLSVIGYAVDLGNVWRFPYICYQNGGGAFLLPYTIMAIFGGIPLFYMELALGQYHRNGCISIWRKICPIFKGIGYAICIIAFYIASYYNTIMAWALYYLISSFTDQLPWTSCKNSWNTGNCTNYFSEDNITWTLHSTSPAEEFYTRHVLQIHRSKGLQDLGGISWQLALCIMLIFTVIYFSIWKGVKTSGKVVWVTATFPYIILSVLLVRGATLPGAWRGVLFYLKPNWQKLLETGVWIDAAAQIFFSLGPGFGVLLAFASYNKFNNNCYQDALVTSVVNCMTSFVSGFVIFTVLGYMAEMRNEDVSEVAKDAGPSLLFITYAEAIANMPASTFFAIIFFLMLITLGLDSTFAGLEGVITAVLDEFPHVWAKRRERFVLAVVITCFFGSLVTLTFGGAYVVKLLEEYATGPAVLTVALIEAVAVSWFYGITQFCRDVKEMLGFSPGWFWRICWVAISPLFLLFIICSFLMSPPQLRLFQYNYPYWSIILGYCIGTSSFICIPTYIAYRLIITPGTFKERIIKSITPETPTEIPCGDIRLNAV
T2 sequence (P25103 whole entry): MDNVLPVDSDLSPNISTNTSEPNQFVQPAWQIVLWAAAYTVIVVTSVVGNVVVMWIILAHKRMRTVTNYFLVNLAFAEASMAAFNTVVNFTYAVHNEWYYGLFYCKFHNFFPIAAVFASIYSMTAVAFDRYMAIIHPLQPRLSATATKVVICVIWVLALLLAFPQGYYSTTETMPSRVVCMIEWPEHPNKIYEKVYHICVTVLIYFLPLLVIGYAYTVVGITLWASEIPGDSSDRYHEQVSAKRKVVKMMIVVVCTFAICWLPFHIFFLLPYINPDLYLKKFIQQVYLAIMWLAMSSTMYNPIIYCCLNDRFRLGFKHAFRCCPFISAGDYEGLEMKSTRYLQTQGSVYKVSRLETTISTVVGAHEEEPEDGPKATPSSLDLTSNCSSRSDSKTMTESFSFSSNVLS

Compound | IC50 [1] [nM] | IC50 [2] [nM] | IC50 [1, 3] [nM]
CN1CCC(COCc2cc(-c3ccc(C#N)cc3)cc3cccnc23)(c2ccccc2)CC1 [Example 25] | 0.01 to 100 | > 300 | –
Cc1cc(COCC2(c3ccccc3)CCN(C)CC2)c2ncccc2c1 [Example 26] | – | 0.01 to 100 | 0.01 to 100
Cc1cc(COCC2(c3ccc(F)cc3F)CCNCC2)c2ncccc2c1 [Example 27] | – | 0.01 to 100 | 0.01 to 100
Cc1cc(COCC2(c3ccc(F)cc3F)CCN(C)CC2)c2ncccc2c1 [Example 28] | 0.01 to 100 | 100 to 300 | –
Cc1cc(COCC2(c3ccc(F)cc3)CCNCC2)c2ncccc2c1 [Example 29] | – | 0.01 to 100 | 0.01 to 100
Cc1cc(COCC2(c3ccc(F)cc3)CCN(C)CC2)c2ncccc2c1 [Example 30] | – | 0.01 to 100 | 0.01 to 100
c1ccc(C2(COCc3cccc4cccnc34)CCNCC2)cc1 [Example 31, 8-(((4-phenylpiperidin-4-yl)methoxy)methyl)quinoline] | – | > 300 | 0.01 to 100
CN1CCC(COCc2cc(C(F)(F)F)cc3cccnc23)(c2ccc(F)cc2)CC1 [Example 32, 8-(((4-(4-fluorophenyl)-1-methylpiperidin-4-yl)methoxy)methyl)-6-(trifluoromethyl)quinoline] | – | 0.01 to 100 | 0.01 to 100
CC(OCC1(c2ccc(F)cc2)CCNCC1)c1cc(C(F)(F)F)cc2cccnc12 (stereo not shown) [Example 33] | – | 0.01 to 100 | 0.01 to 100
CC(OCC1(c2ccc(F)cc2)CCN(C)CC1)c1cc(C(F)(F)F)cc2cccnc12 (stereo not shown) [Example 34] | – | 0.01 to 100 | 0.01 to 100
CC(OCC1(c2ccccc2)CCNCC1)c1cc(C(F)(F)F)cc2cccnc12 (stereo not shown) [Example 35] | – | 0.01 to 100 | 0.01 to 100
CC(OCC1(c2ccccc2)CCN(C)CC1)c1cc(C(F)(F)F)cc2cccnc12 (stereo not shown) [Example 36] | – | 0.01 to 100 | 0.01 to 100
CC(OCC1(c2ccc(F)cc2F)CCNCC1)c1cc(C(F)(F)F)cc2cccnc12 (stereo not shown) [Example 37] | – | 0.01 to 100 | 0.01 to 100
CC(OCC1(c2ccc(F)cc2F)CCN(C)CC1)c1cc(C(F)(F)F)cc2cccnc12 (stereo not shown) [Example 38] | – | 0.01 to 100 | 0.01 to 100
Cc1cc(C(C)OCC2(c3ccc(F)cc3)CCNCC2)c2ncccc2c1 (stereo not shown) [Example 39] | – | 0.01 to 100 | 0.01 to 100
Cc1cc(C(C)OCC2(c3ccc(F)cc3)CCN(C)CC2)c2ncccc2c1 (stereo not shown) [Example 40] | – | 0.01 to 100 | 0.01 to 100
Cc1cc(C(C)OCC2(c3ccccc3)CCNCC2)c2ncccc2c1 (stereo not shown) [Example 41] | – | 0.01 to 100 | 0.01 to 100
Cc1cc(C(C)OCC2(c3ccccc3)CCN(C)CC2)c2ncccc2c1 (stereo not shown) [Example 42] | – | 0.01 to 100 | 0.01 to 100
Cc1cc(C(C)OCC2(c3ccc(F)cc3F)CCN(C)CC2)c2ncccc2c1 (stereo not shown) [Example 43] | – | 0.01 to 100 | 0.01 to 100
CN1CCC(COCc2cc(C#N)cc3cccnc23)(c2ccc(F)cc2)CC1 [Example 44, 8-(((4-(4-fluorophenyl)-1-methylpiperidin-4-yl)methoxy)methyl)quinoline-6-carbonitrile] | 0.01 to 100 | > 300 | –
CNc1cc(COCC2(c3ccccc3)CCNCC2)nc2cccc(C(F)(F)F)c12 [Example 45, N-methyl-2-(((4-phenylpiperidin-4-yl)methoxy)methyl)-5-(trifluoromethyl)quinolin-4-amine] | – | > 300 | 0.01 to 100
FC(F)(F)c1ccc2ccc(COCC3(c4ccccc4)CCNCC3)nc2c1 [Example 46, 2-(((4-phenylpiperidin-4-yl)methoxy)methyl)-7-(trifluoromethyl)quinoline] | – | > 300 | 0.01 to 100
FC(F)(F)c1ccnc2ccc(COCC3(c4ccccc4)CCNCC3)cc12 [Example 47, 6-(((4-phenylpiperidin-4-yl)methoxy)methyl)-4-(trifluoromethyl)quinoline] | – | > 300 | 0.01 to 100
FC(F)(F)c1cccc2nc(COCC3(c4ccccc4)CCNCC3)ccc12 [Example 48, 2-(((4-phenylpiperidin-4-yl)methoxy)methyl)-5-(trifluoromethyl)quinoline] | – | > 300 | 0.01 to 100
Cc1cc(C(C)OCC2(c3ccc(F)cc3)CCN(C)CC2)c2nc(Cl)ccc2c1 (stereo not shown) [Example 49] | – | 0.01 to 100 | 0.01 to 100
COc1ccc2cc(C)cc(C(C)OCC3(c4ccc(F)cc4)CCN(C)CC3)c2n1 (stereo not shown) [Example 50] | – | 0.01 to 100 | 0.01 to 100
Cc1cc(C(C)OCC2(c3ccc(F)cc3)CCN(C)CC2)c2nc(N(C)C)ccc2c1 (stereo not shown) [Example 51] | – | 0.01 to 100 | 100 to 300
Cc1cc(C(C)OCC2(c3ccc(F)cc3)CCN(C)CC2)c2nc(F)ccc2c1 (stereo not shown) [Example 52] | – | 0.01 to 100 | 0.01 to 100
Cc1cc(C(C)OCC2(c3ccc(F)cc3)CCN(C)CC2)c2[nH]c(=O)ccc2c1 (stereo not shown) [Example 53] | – | 0.01 to 100 | 0.01 to 100

From patent publication US20090018163A1, “Substituted Heterocyclic Ethers and Their Use in CNS Disorders” (Bristol-Myers Squibb Company, priority 2007, published 2009)
